Assay results: patent US9611275B2 (priority 2012, dated 2017)

Assay: Assay for determination of apparent permeability (Papp), bi-directional transport
Details: pig, LLC-PK1

Row | Compound | Papp at 3 h, 1 μM [×10⁻⁶ cm/s]
1 | CCCO[C@H]([C@H]1O[C@@H]2SC(N(C)C)=N[C@@H]2[C@@H](O)[C@@H]1O)C(F)(F)F [Example 25, (3aR,5S,6S,7R,7aR)-2-(dimethylamino)-5-((R)-2,2,2-trifluoro-1-propoxyethyl)-5,6,7,7a-tetrahydro-3aH-pyrano[3,2-d]thiazole-6,7-diol] | 29.5
2 | CCN(C)C1=N[C@@H]2[C@@H](O)[C@H](O)[C@@H]([C@@H](OC)C(F)(F)F)O[C@@H]2S1 [Example 73, (3aR,5S,6S,7R,7aR)-2-(ethyl(methyl)amino)-5-((R)-2,2,2-trifluoro-1-methoxyethyl)-5,6,7,7a-tetrahydro-3aH-pyrano[3,2-d]thiazole-6,7-diol] | 19.9
3 | CNC1=N[C@@H]2[C@@H](O)[C@H](O)[C@@H]([C@@H](OCCC3CCCCC3)C(F)(F)F)O[C@@H]2S1 [Example 80, (3aR,5S,6S,7R,7aR)-5-((R)-1-(2-cyclohexylethoxy)-2,2,2-trifluoroethyl)-2-(methylamino)-5,6,7,7a-tetrahydro-3aH-pyrano[3,2-d]thiazole-6,7-diol] | 28.5
4 | CN(C)C1=N[C@@H]2[C@@H](O)[C@H](O)[C@@H]([C@@H](OCCCCF)C(F)(F)F)O[C@@H]2S1 [Example 30, (3aR,5S,6S,7R,7aR)-2-(dimethylamino)-5-((R)-2,2,2-trifluoro-1-(4-fluorobutoxy)ethyl)-5,6,7,7a-tetrahydro-3aH-pyrano[3,2-d]thiazole-6,7-diol] | 30.8
5 | CNC1=N[C@@H]2[C@@H](O)[C@H](O)[C@@H]([C@@H](OCc3ccc(Oc4ccccc4)cc3)C(F)(F)F)O[C@@H]2S1 [Example 99, (3aR,5S,6S,7R,7aR)-2-(methylamino)-5-((R)-2,2,2-trifluoro-1-(4-phenoxybenzyloxy)ethyl)-5,6,7,7a-tetrahydro-3aH-pyrano[3,2-d]thiazole-6,7-diol] | 21.7
6 | Cc1ccc(CO[C@H]([C@H]2O[C@@H]3SC(N(C)C)=N[C@@H]3[C@@H](O)[C@@H]2O)C(F)(F)F)cc1 [Example 40, (3aR,5S,6S,7R,7aR)-2-(dimethylamino)-5-((R)-2,2,2-trifluoro-1-(4-methylbenzyloxy)ethy1)-5,6,7,7a-tetrahydro-3aH-pyrano[3,2-d]thiazole-6,7-diol] | 31.2
7 | CNC1=N[C@@H]2[C@@H](O)[C@H](O)[C@@H]([C@@H](OCc3ccccc3)C(F)(F)F)O[C@@H]2S1 [Example 84, (3aR,5S,6S,7R,7aR)-5-((R)-1-(benzyloxy)-2,2,2-trifluoroethyl)-2-(methylamino)-5,6,7,7a-tetrahydro-3aH-pyrano[3,2-d]thiazole-6,7-diol] | 27
8 | CCc1cc(CO[C@H]([C@H]2O[C@@H]3SC(N(C)C)=N[C@@H]3[C@@H](O)[C@@H]2O)C(F)(F)F)ccc1OC [Example 59, (3aR,5S,6S,7R,7aR)-2-(dimethylamino)-5-((R)-1-(3-ethyl-4-methoxybenzyloxy)-2,2,2-trifluoroethyl)-5,6,7,7a-tetrahydro-3aH-pyrano[3,2-d]thiazole-6,7-diol] | 29.6
9 | COc1ccccc1CO[C@@H]([C@H]1O[C@@H]2SC(N(C)C)=N[C@@H]2[C@@H](O)[C@@H]1O)C(F)(F)F [Example 49, (3aR,5S,6S,7R,7aR)-2-(dimethylamino)-5-((S)-2,2,2-trifluoro-1-(2-mcthoxybenzyloxy)ethyl)-5,6,7,7a-tetrahydro-3aH-pyrano[3,2-d]thiazole-6,7-diol] | 29.8
10 | C=CCOc1ccc(CO[C@H]([C@H]2O[C@@H]3SC(N(C)C)=N[C@@H]3[C@@H](O)[C@@H]2O)C(F)(F)F)cc1 [Example 20, (3aR,5S,6S,7R,7aR)-5-((R)-1-(4-(allyloxy)benzyloxy)-2,2,2-trifluoroethyl)-2-(dimethylamino)-5,6,7,7a-tetrahydro-3aH-pyrano[3,2-d]thiazole-6,7-diol] | 29.8
11 | CN(C)C1=N[C@@H]2[C@@H](O)[C@H](O)[C@@H]([C@@H](OCc3cccc(F)c3F)C(F)(F)F)O[C@@H]2S1 [Example 46, (3aR,5S,6S,7R,7aR)-5-((R)-1-(2,3-difluorobenzyloxy)-2,2,2-trifluoroethyl)-2-(dimethylamino)-5,6,7,7a-tetrahydro-3aH-pyrano[3,2-d]thiazole-6,7-diol] | 34.5
12 | CNC1=N[C@@H]2[C@@H](O)[C@H](O)[C@@H]([C@@H](Oc3ccccc3)C(F)(F)F)O[C@@H]2S1 [Example 4, (3aR,5S,6S,7R,7aR)-2-(methylamino)-5-((R)-2,2,2-trifluoro-1-phenoxyethyl)-5,6,7,7a-tetrahydro-3aH-pyrano[3,2-d]thiazole-6,7-diol] | 27.3
13 | CNC1=N[C@@H]2[C@@H](O)[C@H](O)[C@@H]([C@@H](OCc3ccccc3C(F)(F)F)C(F)(F)F)O[C@@H]2S1 [Example 93, (3aR,5S,6S,7R,7aR)-2-(methylamino)-5-((R)-2,2,2-trifluoro-1-(2-(trifluoromethyl)benzyloxy)ethyl)-5,6,7,7a-tetrahydro-3aH-pyrano[3,2-d]thiazole-6,7-diol] | 29.2
14 | CN(C)C1=N[C@@H]2[C@@H](O)[C@H](O)[C@@H]([C@@H](OCC3CCCCC3)C(F)(F)F)O[C@@H]2S1 [Example 35, (3aR,5S,6S,7R,7aR)-5-((R)-1-(cyclohexylmethoxy)-2,2,2-trifluoroethyl)-2-(dimethylamino)-5,6,7,7a-tetrahydro-3aH-pyrano[3,2-d]thiazole-6,7-diol] | 33.6
15 | CCO[C@H]([C@H]1O[C@@H]2SC(N(C)C)=N[C@@H]2[C@@H](O)[C@@H]1O)C(F)(F)F [Example 23, (3aR,5S,6S,7R,7aR)-2-(dimethylamino)-5-((R)-1-ethoxy-2,2,2-trifluoroethyl)-5,6,7,7a-tetrahydro-3aH-pyrano[3,2-d]thiazole-6,7-diol] | 23.6
16 | COc1ccc(CO[C@H]([C@H]2O[C@@H]3SC(N(C)C)=N[C@@H]3[C@@H](O)[C@@H]2O)C(F)(F)F)cc1C [Example 54, (3aR,5S,6S,7R,7aR)-2-(dimethylamino)-5-((R)-2,2,2-trifluoro-1-(4-methoxy-3-methylbenzyloxy)ethyl)-5,6,7,7a-tetrahydro-3aH-pyrano[3,2-d]thiazole-6,7-diol] | 31.3
17 | CN(C)C1=N[C@@H]2[C@@H](O)[C@H](O)[C@@H]([C@@H](Oc3ccc([N+](=O)[O-])cc3)C(F)(F)F)O[C@@H]2S1 [Example 9, (3aR,5S,6S,7R,7aR)-2-(dimethylamino)-5-((R)-2,2,2-trifluoro-1-(4-nitrophenoxy)ethyl)-5,6,7,7a-tetrahydro-3aH-pyrano[3,2-d]thiazole-6,7-diol] | 31.5
18 | CN(C)C1=N[C@@H]2[C@@H](O)[C@H](O)[C@@H]([C@@H](OCCCc3ccc(F)cc3)C(F)(F)F)O[C@@H]2S1 [Example 36, (3aR,5S,6S,7R,7aR)-2-(dimethylamino)-5-((R)-2,2,2-trifluoro-1-(3-(4-fluorophenyl)propoxy)ethyl)-5,6,7,7a-tetrahydro-3aH-pyrano[3,2-d]thiazole-6,7-diol] | 28.1
19 | CO[C@H]([C@H]1O[C@@H]2SC(N(C)C)=N[C@@H]2[C@@H](O)[C@@H]1O)C(F)(F)F [Example 2, (3aR,5S,6S,7R,7aR)-2-(dimethylamino)-5-((R)-2,2,2-trifluoro-1-methoxyethyl)-5,6,7,7a-tetrahydro-3aH-pyrano[3,2-d]thiazole-6,7-diol] | 20.8
